# pEC50: −log10 of the molar value.
# Legend:
# [1] = Rat Hepatocyte Stability (Test E); type: in vitro ADME; conditions: rat, hepatocytes, geometric mean if run multiple times
# In short: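 Run per the published AstraZeneca-type rat hepatocyte stability protocol (Wernevik et al. panel). Values are mean intrinsic clearance, Clint in μl/min/10^6 cells; geometric mean used for repeated runs.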
# [2] = Human Liver Microsomal Stability (Test C); type: in vitro ADME; conditions: human, liver microsomes
# In short: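 Human liver microsome incubation per the Wernevik et al. integrated DMPK panel protocol. Intrinsic clearance reported as CLint in μl/min/mg protein, averaged arithmetically over repeat runs.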
# [3] = molecular target: T1, human RXFP1 (Homo sapiens, UniProt Q9HBX9); experiment: RXFP1 Hu cAMP (Test A); type: cell-based; set-up: expressed in transfected cells; host or cells: Jump-In T-REx CHO-K1 cells (ThermoFisher), induced with 10 ng/ml doxycycline for 24 h; conditions: RXFP1 Hu cAMP; for pEC50: read-out: Test A EC50
# T1 sequence (Q9HBX9 1-757): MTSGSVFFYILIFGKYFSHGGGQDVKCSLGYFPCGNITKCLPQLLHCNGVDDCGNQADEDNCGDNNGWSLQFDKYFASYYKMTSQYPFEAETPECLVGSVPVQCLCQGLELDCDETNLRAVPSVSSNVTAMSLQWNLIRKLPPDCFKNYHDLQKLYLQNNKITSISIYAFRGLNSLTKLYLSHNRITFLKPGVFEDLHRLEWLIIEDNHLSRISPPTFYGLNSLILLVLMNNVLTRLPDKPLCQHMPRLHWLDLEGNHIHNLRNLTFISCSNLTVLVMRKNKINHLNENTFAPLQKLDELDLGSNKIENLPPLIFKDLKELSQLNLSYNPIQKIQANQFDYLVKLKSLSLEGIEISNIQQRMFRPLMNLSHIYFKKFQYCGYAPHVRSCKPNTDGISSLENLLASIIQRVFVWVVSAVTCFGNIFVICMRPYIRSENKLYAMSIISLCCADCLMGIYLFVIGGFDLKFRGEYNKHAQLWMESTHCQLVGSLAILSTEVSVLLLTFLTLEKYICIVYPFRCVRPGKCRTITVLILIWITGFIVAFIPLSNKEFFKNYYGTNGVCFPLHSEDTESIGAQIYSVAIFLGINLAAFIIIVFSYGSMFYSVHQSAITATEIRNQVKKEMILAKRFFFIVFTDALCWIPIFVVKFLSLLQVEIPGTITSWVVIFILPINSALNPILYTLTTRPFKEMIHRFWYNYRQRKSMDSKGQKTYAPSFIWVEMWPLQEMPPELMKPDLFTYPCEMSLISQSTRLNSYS
# In short: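 Read-out is HTRF signal, inversely proportional to cAMP, converted to cAMP amount by standard curve. Stimulation occurred in inducible CHO-K1 cells expressing the human receptor with phosphodiesterases blocked by 0.5 mM IBMX.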
# [4] = Solubility (Test F); type: physicochemical; conditions: arithmetic mean if run multiple times
# Protocol: The assay was conducted according to the Solubility Assay described in pages 164-167 of Wernevik, J. et al., “A Fully Integrated Assay Panel for Early Drug Metabolism and Pharmacokinetics Profiling”, Assay and Drug Development Technologies, 2020, 18(4), 157-179. Data are reported in Table 36 as solubility ([…]. Where the assay was run multiple times for the same compound, the arithmetic mean is reported.
# [5] = Human Plasma Protein Binding (Test B); type: in vitro ADME; conditions: fraction unbound (fu)
# Protocol: Human Plasma Protein Binding (Test B)
# The assay was conducted according to the Human Plasma Protein Binding Assay described in pages 167-170 of Wernevik, J. et al., “A Fully Integrated Assay Panel for Early Drug Metabolism and Pharmacokinetics Profiling”, Assay and Drug Development Technologies, 2020, 18(4), 157-179. Data are reported in Table 36 as fraction unbound (fu) (% free). Where the assay was run multiple times for the same compound, the arithmetic mean is reported.
Compound,hepatocyte CLint [1] [µL/min/1e6 cells],microsomal CLint [2] [µL/min/mg],Test A Sinf [3] [%],pEC50 [3],solubility [4] [µM],Test B Human Plasma Protein Binding (% free) [5] [% free]
COc1cc(C#N)c(O[C@H]2CC[C@@](C)(C(=O)O)CC2)cc1C(=O)N[C@@H]1[C@H]2CC[C@H](C2)[C@@H]1C(=O)NC1(C#N)CC1 [Example 72],14,< 3,75,< 5.51,950,40
COc1cc(C#N)c(O[C@H]2CC[C@@](C)(C(=O)O)CC2)cc1C(=O)N[C@@H]1[C@H]2CC[C@H](C2)[C@@H]1C(=O)NC1(C2CC2)CC1 [Example 112],17,6.8,95,6.33,830,16
"COc1cc(F)c(O[C@H]2CC[C@@H](C(=O)O)CC2)cc1C(=O)N[C@@H]1[C@H]2CC[C@H](C2)[C@@H]1C(=O)NC(C)C [Example 8, (1S,4s)-4-(2-Fluoro-5-(((1S,2R,3S,4R)-3-(isopropylcarbamoyl)bicyclo[2.2.1]heptan-2-yl)carbamoyl)-4-methoxyphenoxy)cyclohexane-1-carboxylic acid]",38,1.7,–,< 4.30,980,23
COc1cc(C#N)c(O[C@H]2CC[C@@](C)(C(=O)O)CC2)cc1C(=O)N[C@@H]1[C@H]2CC[C@H](C2)[C@@H]1C(=O)NCC1(C(C)C)CC1 [Example 78],37,44,120,–,820,6.9
COc1cc(C#N)c(O[C@H]2CC[C@@](C)(C(=O)O)CC2)cc1C(=O)N[C@@H]1[C@H]2CC[C@H](C2)[C@@H]1C(=O)NCC1CCC(C#N)CC1 (stereo partly shown) [Example 107],34,7.9,112,5.08,1000,26
COc1cc(C#N)c(O[C@H]2CC[C@@](C)(C(=O)O)CC2)cc1C(=O)N[C@@H]1[C@H]2CC[C@H](C2)[C@@H]1C(=O)NCC1(OC)CC1 [Example 111],18,< 3,100,6.17,860,31
"COc1cc(F)c(O[C@H]2CC[C@@](C)(C(=O)O)CC2)cc1C(=O)Nc1cccc(Cl)c1C(=O)NCC1(C)CCC1 [Example 54, (1s,4s)-4-(5-((3-Chloro-2-(((1-methylcyclobutyl)methyl)carbamoyl)phenyl)carbamoyl)-2-fluoro-4-methoxyphenoxy)-1-methylcyclohexane-1-carboxylic acid]",13,16,108,6.31,2.8,1.1

# More lines, now with the values ahead:
hepatocyte CLint [1] [µL/min/1e6 cells],microsomal CLint [2] [µL/min/mg],Test A Sinf [3] [%],pEC50 [3],solubility [4] [µM],Test B Human Plasma Protein Binding (% free) [5] [% free],Compound
120,23,110,6.17,420,1.6,COc1cc(F)c(O[C@H]2CC[C@@H](C(=O)O)CC2)cc1C(=O)N[C@@H]1[C@H]2CC[C@H](C2)[C@@H]1C(=O)Nc1cccc(C2CC2)c1 [Example 190]
23,34,101,6.89,83,1.5,COc1cc(F)c(O[C@H]2CC[C@@H](C(=O)O)CC2)cc1C(=O)N[C@@H]1[C@H]2CC[C@H](C2)[C@@H]1C(=O)Nc1cccc(C(C)(C)C)c1 [Example 189]
9.5,16,96,7.23,> 1000,0.35,"COc1cc(F)c(-c2ccc(OCC(=O)O)cc2)cc1C(=O)N[C@@H]1[C@H]2CC[C@H](C2)[C@@H]1C(=O)Nc1cccc(S(=O)(=O)C(F)(F)F)c1 [Example 257, 2-((2′-Fluoro-4′-methoxy-5′-(((1S,2R,3S,4R)-3-((3-((trifluoromethyl)sulfonyl)phenyl)carbamoyl)bicyclo[2.2.1]heptan-2-yl)carbamoyl)-[1,1′-biphenyl]-4-yl)oxy)acetic acid]"
64,23,107,6.39,850,2.7,"COc1cc(F)c(O[C@H]2CC[C@@H](C(=O)O)CC2)cc1C(=O)N[C@@H]1[C@H]2CC[C@H](C2)[C@@H]1C(=O)Nc1ccnc(C(F)(F)F)c1 [Example 12, (1S,4s)-4-(2-Fluoro-4-methoxy-5-(((1S,2R,3S,4R)-3-((2-(trifluoromethyl)pyridin-4-yl)carbamoyl)bicyclo[2.2.1]heptan-2-yl)carbamoyl)phenoxy)cyclohexane-1-carboxylic acid]"
29,18,79,6.12,380,0.44,COc1cc(F)c(-c2cccc(CCC(=O)O)c2)cc1C(=O)N[C@@H]1CCC[C@@H]1C(=O)Nc1cccc(S(=O)(=O)C(F)(F)F)c1 [Example 319]
22,18,106,6.43,13,<1.2,"COc1cc(F)c(-c2ccc(C[C@@H](N)C(=O)O)cc2)cc1C(=O)N[C@@H]1[C@H]2CC[C@H](C2)[C@@H]1C(=O)Nc1cccc(S(=O)(=O)C(F)(F)F)c1 [Example 291, (R)-2-Amino-3-(2′-fluoro-4′-methoxy-5′-(((1S,2R,3S,4R)-3-((3-((trifluoromethyl)sulfonyl)phenyl)carbamoyl)bicyclo[2.2.1]heptan-2-yl)carbamoyl)-[1,1′-biphenyl]-4-yl)propanoic acid]"
29,37,106,7.03,> 1000,2.1,"COc1ccc(O[C@H]2CC[C@@H](C(=O)O)CC2)cc1C(=O)N[C@@H]1[C@H]2CC[C@H](C2)[C@@H]1C(=O)Nc1cccc(S(=O)(=O)C(F)(F)F)c1 [Example 466, (1S,4s)-4-(4-Methoxy-3-(((1S,2R,3S,4R)-3-((3-((trifluoromethyl)sulfonyl)phenyl)carbamoyl)bicyclo[2.2.1]heptan-2-yl)carbamoyl)phenoxy)cyclohexane-1-carboxylic acid]"
19,26,109,7.70,8.7,0.24,COc1cc(F)c(O[C@H]2CC[C@@H](C(=O)O)CC2)cc1C(=O)N[C@@H]1[C@H]2CC[C@H](C2)[C@@H]1C(=O)Nc1ccc(Br)c(C(F)(F)F)c1 [Example 23]
55,8.5,112,7.24,170,0.50,"COc1cc(F)c(O[C@H]2CC[C@@](C)(C(=O)O)CC2)cc1C(=O)N[C@@H]1CC[C@@H]1C(=O)Nc1ccc(F)c(C(F)(F)F)c1 [Example 51, (1S,4s)-4-(2-Fluoro-5-(((1R,2S)-2-((4-fluoro-3-(trifluoromethyl)phenyl)carbamoyl)cyclobutyl)carbamoyl)-4-methoxyphenoxy)-1-methylcyclohexane-1-carboxylic acid]"
